Earlier results, collected in patent US10603329B2 (INDENA S.P.A., priority 2006, dated 2020).
pIC50: −log10 of the molar value.

System: cancer cells
Settings: in vitro; read-out: IC50, growth of cancer cells

SMILES: COc1cc(C=CC(=O)CC(=O)C=Cc2ccc(O)c(OC)c2)ccc1O [curcumin, 1,7-bis(4-hydroxyl-3-methoxyphenyl)-1,6-heptadiene-3,5-dione]
- pIC50: 4.12 to 4.70
